Assay results published in ChEMBL document CHEMBL1149998, “Tannins as selective inhibitors of protein kinase C” (Bioorg Med Chem Lett, 1992).

How the values were obtained:
[1] = Inhibition of c-AMP kinase PKA; parameters: species or system Bos taurus
[2] = target: Protein kinase C, PKC; classical/novel (Homo sapiens) (UniProt O94806+P17252+P05129+Q05655+P05771+Q02156+P24723+Q15139+Q04759); test: Displacement of phorbol [3H]PDBu from protein kinase C; A - Did displace phorbol (PDBu) at 50 uM or less; type: protein assay
[3] = target: Protein kinase C (PKC); test: Inhibitory activity against protein kinase C (PKC); type: protein assay, Homo sapiens
[4] = Inhibitory activity against c-AMP kinase; Did not inhibit c-AMP kinase

Row | Structure (SMILES) | IC50 [1] | Phorbol displacement [2] | IC50 [3] | IC50 [4]
1 | O=C(OC[C@@H]1O[C@@H](OC(=O)c2cc(O)c(O)c(O)c2)[C@@H](OC(=O)c2cc(O)c(O)c(O)c2)[C@@H](OC(=O)c2cc(O)c(O)c(O)c2)[C@@H]1OC(=O)c1cc(O)c(O)c(O)c1Oc1cc2c(c(O)c1O)-c1c(cc(O)c(O)c1O)C(=O)OC[C@@H]1O[C@@H](OC(=O)c3cc(O)c(O)c(O)c3)[C@@H](OC(=O)c3cc(O)c(O)c(O)c3)[C@@H](OC(=O)c3cc(O)c(O)c(O)c3)[C@@H]1OC2=O)c1cc(O)c(O)c(O)c1 | 32 µM | < 50 µM | 3 µM | –
2 | O=C(O[C@@H]1O[C@H]2COC(=O)c3cc(O)c(O)c(O)c3-c3c(cc(O)c(O)c3O)C(=O)O[C@H]2[C@@H]2OC(=O)c3cc(O)c(O)c(O)c3-c3c(cc(O)c(O)c3O)C(=O)O[C@H]12)c1cc(O)c(O)c(Oc2c(O)c(O)c(O)c3c2C(=O)O[C@H]2[C@@H]4OC(=O)c5cc(O)c(O)c(O)c5-c5c(cc(O)c(O)c5O)C(=O)O[C@@H]4[C@H](OC(=O)c4cc(O)c(O)c(O)c4)O[C@H]2COC(=O)c2cc(O)c(O)c(O)c2-3)c1 | 48 µM | < 50 µM | 5 µM | –
3 | O=C1OCC2OC(=O)c3cc(O)c(O)c(O)c3-c3c(O)c(O)c(O)c4c3C(=O)OC(C2OC(=O)c2cc(O)c(O)c(O)c2-c2c1cc(O)c(O)c2O)C1OC(=O)C2C4=C(O)C(=O)C23Oc2cc(O)c4c(c2[C@H]13)O[C@H](c1ccc(O)c(O)c1)[C@@H](O)C4 (some centres not stated) | 44 µM | < 50 µM | 4 µM | –
4 | O=C(O[C@@H]1O[C@H]2COC(=O)c3cc(O)c(O)c(O)c3-c3c(cc(O)c(O)c3O)C(=O)O[C@H]2[C@@H]2OC(=O)c3cc(O)c(O)c(O)c3-c3c(cc(O)c(O)c3O)C(=O)O[C@H]12)c1cc(O)c(O)c(Oc2c(O)c(O)c(O)c3c2C(=O)O[C@H]2[C@@H]4OC(=O)c5cc(O)c(O)c(O)c5-c5c(cc(O)c(O)c5O)C(=O)O[C@@H]4[C@H](OC(=O)c4cc(O)c(O)c(Oc5c(O)c(O)c(O)c6c5C(=O)O[C@H]5[C@@H]7OC(=O)c8cc(O)c(O)c(O)c8-c8c(cc(O)c(O)c8O)C(=O)O[C@@H]7[C@H](OC(=O)c7cc(O)c(O)c(Oc8c(O)c(O)c(O)c9c8C(=O)O[C@H]8[C@@H]%10OC(=O)c%11cc(O)c(O)c(O)c%11-c%11c(cc(O)c(O)c%11O)C(=O)O[C@@H]%10[C@H](OC(=O)c%10cc(O)c(O)c(O)c%10)O[C@H]8COC(=O)c8cc(O)c(O)c(O)c8-9)c7)O[C@H]5COC(=O)c5cc(O)c(O)c(O)c5-6)c4)O[C@H]2COC(=O)c2cc(O)c(O)c(O)c2-3)c1 | 22 µM | < 50 µM | 10 µM | –
5 | O=C(O[C@@H]1O[C@@H]2COC(=O)c3cc(Oc4c(C(=O)O)cc(O)c(O)c4O)c(O)c(O)c3-c3c(cc(O)c(O)c3O)C(=O)O[C@H]([C@H]1O)[C@@H]2O)c1cc(O)c(O)c(O)c1 | 100 µM | < 50 µM | 20 µM | –
6 | O=C(OC1COC(=O)c2cc(O)c(O)c(O)c2-c2c(cc(O)c(O)c2O)C(=O)OC1C1OC(=O)c2cc(O)c(O)c(O)c2-c2c(O)c(O)c(O)c3c2C(=O)OC1[C@@H]3O)c1cc(O)c(O)c(O)c1 (some centres not stated) | 84 µM | < 50 µM | 11 µM | –
7 | O=C1OCC2OC(=O)c3cc(O)c(O)c(O)c3-c3c(O)c(O)c(O)c4c3C(=O)OC(C2OC(=O)c2cc(O)c(O)c(O)c2-c2c1cc(O)c(O)c2O)C1OC(=O)c2c-4c(O)c(O)c(O)c2[C@@H]1c1c(O)cc(O)c2c1O[C@H](c1ccc(O)c(O)c1)[C@@H](O)C2 (some centres not stated) | 95 µM | < 50 µM | 7 µM | –
8 | O=C1O[C@H]2[C@@H]3OC(=O)c4cc(O)c(O)c(O)c4-c4c(cc(Oc5c(C(=O)O)cc(O)c(O)c5O)c(O)c4O)C(=O)OC[C@H]2O[C@@H](OC(=O)c2cc(O)c(O)c(O)c2)[C@@H]3OC(=O)c2cc(O)c(O)c3c2C2C1=CC(=O)C(O)(O)C2(O)O3 (some centres not stated) [E181] | 65 µM | < 50 µM | 16 µM | –
9 | O=C(OC[C@H]1O[C@H](OC(=O)c2cc(O)c(O)c(O)c2)[C@H](OC(=O)c2cc(O)c(O)c(O)c2)[C@@H](OC(=O)c2cc(O)c(O)c(O)c2)[C@@H]1O)c1cc(O)c(O)c(O)c1 | – | < 50 µM | 20 µM | Not Active
